Patent US5373012A, “5-fluoro-2,4,6-pyrimidinetriamine compounds” (The Upjohn Company, priority 1993, dated 1994)
Several values for one entry are separate records, joined by “and”; a condition that tells them apart may be missing. Identical values can stand only once.

How the values were obtained:
[1] = in vivo hair growth assay using rats (shaved hair weighed every seven days); details: for Hair Growth: mean
Experimental: The 5-fluoro minoxidil compounds were evaluated for hair growth in an in vivo hair growth assay using rats. Each rat is dosed with vehicle and drug, 200-500 microliters per day, 5 days per week. Every seven days the treated areas are shaved and the hair removed is weighed to compare normal untreated hair growth to the drug treated hair growth.

[2] = hair growth in stumptail macaque monkeys (balding scalp, hair weight change from baseline); format: in vivo, stumptail macaque (Macaca specoisa) monkeys; details: Table III; topical 100 mM in 50% propylene glycol/50% ethanol, sixteen weeks; vehicle -1.8 ± 2.7; mean±SEM
Experimental: The 5-fluoro minoxidil compounds were evaluated in the macaque monkey models and show significant hair growth results.
Thirteen stumptail macaque (Macaca specoisa) monkeys (mixed sexes) were assigned to vehicle control and drug treated groups on the basis of baseline hair weight data.
1. Topical 50:50 vehicle (N=7)
The control consisted of 50% propylene glycol, 50% ethanol. The experimental composition consisted of a 100 mM concentration of topical 5-fluoro minoxidil formulated in the control vehicle. Immediately prior to the dosing phase of the study, hair was removed from a 1 inch square area (identified by four tattoos) in the center of the balding scalp. This hair collection was the baseline hair growth determination prior to the beginning of treatment. Approximately 250 μL of vehicle or 100 mM 5-fluoro minoxidil (prepared in vehicle)were topically administered to the tattooed area of the scalp. The monkeys were dosed once per day, five days per week for sixteen weeks.
At four week intervals throughout the dosing phase of the study, each monkey was shaved and the hair was collected and weighed. The body weight data (at baseline and during assay) were analyzed by the nonparametric Wilcoxon rank-sum test. Differences were significant at p<0.05. The hair weight data (mean±SEM) at each 4 week collection for vehicle and treatment groups were expressed as the change from baseline. […]

[3] = transdermal absorption: urinary excretion of drug after topical application in rats; format: in vivo; details: for AVERAGE of total micrograms excreted: average of three rats, urine over 24 hours on fifth day; for AVERAGE of total micrograms excreted / TOTAL MICROGRAMS EXCRETED: 50/30/20 propylene glycol/ethanol/water; for TOTAL MICROGRAMS EXCRETED: individual rats 1-3, urine over 24 hours on fifth day after four days topical treatment
Experimental: The ability of the 5-fluoro minoxidil to be absorbed in transdermal applications was measured versus minoxidil as a control. Three rats were treated with each compound for four days and on the fifth day their urine was collected over a 24 hour period. The urine was then analyzed for drug levels and converted to micrograms urine excreted per 24 hours. The compounds were administered in a 50/30/20 propylene glycol/ethanol/water vehicle.

[4] = cardiovascular effects in vivo in conscious beagle dogs (mean arterial pressure, heart rate); details: 1.5 mg/kg; N=1; FIG. 2; 5-fluoro minoxidil compared to minoxidil
Experimental: The 5-fluoro minoxidil compounds were evaluated for cardiovascular effects in an in vivo test with beagle dogs. This test procedure is described in Humprey SJ, Zins GR, Whole Body and Regional Hemodynamic Effects of Minoxidil in the Conscious Dog, J. Card, Pharm. 6:979-88 (1984) and in Humprey, S.J., Zins, G.R., The Effects of Indomethacin on the Systemic and Regional Vasodilator Responses to Minoxidil in the Conscious Dog, Chem. Path. & Pharm. 59:1 3-20 (1988). Experiments were conducted using a radiolabeled tracer microspheres technique, Wagner NH et al., Studies of the Circulation with Radioactive Microspheres, Invest. Radiol. 4:374-86 (1969), with conscious beagle dogs. The results of a rapid evaluation (N=1) of the 5-fluoro minoxidil compound compared to minoxidil are presented in FIG. 1 change in Mean Arterial Pressure versus Time at the doses indicated and FIG. 2 Changes in Heart Rate versus Time at the doses indicated.

Q: With `Nc1nc(N2CCCCC2)c(F)c(N)[n+]1[O-]` [5-fluoro minoxidil, 5-Fluoro-6-piperidinyl-2,4-pyrimidinediamine, 3-Oxide] as the molecule, how does the “Hair Growth” value ([1]; Table I, 1 mM, topical, vehicle 50/30/20 propylene glycol/ethanol/water, vehicle +0.527 ± 0.081) read?
A: +0.609 ± 0.083 mg/in^2 /day

Q: And the “Hair Growth” value ([1]; Table I, 5 mM, topical, vehicle 50/30/20 propylene glycol/ethanol/water, vehicle +0.527 ± 0.081)?
A: +0.760 ± 0.153 mg/in^2 /day

Q: And the “Hair Growth” value ([1]; Table I, 25 mM, topical, vehicle 50/30/20 propylene glycol/ethanol/water, vehicle +0.527 ± 0.081)?
A: +0.952 ± 0.149 mg/in^2 /day

Q: What about the “Hair Growth” value ([1]; Table II, 25 mM 5-fluoro-minoxidil in 50/30/20 propylene glycol/ethanol/water, vehicle +0.528) of the same molecule?
A: +0.938 mg/in^2 /day

Q: What about the “Hair Growth (cumulative change in hair weight from baseline)” value [2] of the same molecule?
A: +14.8 ± 3.1 mg

Q: And the “AVERAGE of total micrograms excreted” value [3]?
A: 1427 MICROGRAMS

Q: What about the “transdermal transport properties versus unsubstituted minoxidil” value ([3]; in words) of the same molecule?
A: superior transdermal transport properties over unsubstituted minoxidil

Q: What about the “TOTAL MICROGRAMS EXCRETED” value [3] of the same molecule?
A: 1229 MICROGRAMS and 1132 MICROGRAMS and 1921 MICROGRAMS

Q: And the absorption versus minoxidil ([3]; transdermal, rats, in words)?
A: superior absorption over the minoxidil control

Q: Which “statistical difference (p) between the two agents in level of hair growth stimulation” value ([1]; 100 mM minoxidil vs 25 mM 5-fluoro-minoxidil) does the source give for `Nc1cc(N2CCCCC2)nc(N)[n+]1[O-]` [Minoxidil, reference compound] here?
A: no statistical difference

Q: And the “Hair Growth” value ([1]; Table II, 100 mM minoxidil in 100% PG (propylene glycol), 100% PG alone +0.487)?
A: +1.065 mg/in^2 /day

Q: And the “change in Heart Rate” value [4]?
A: increases in heart rate

Q: What about the “AVERAGE of total micrograms excreted” value [3] of the same molecule?
A: 454 MICROGRAMS

Q: What about the “TOTAL MICROGRAMS EXCRETED” value [3] of the same molecule?
A: 354 MICROGRAMS and 358 MICROGRAMS and 651 MICROGRAMS
